Measured values published in patent US7803930B2, “Antisense modulation of apolipoprotein B-expression” (Isis Pharmaceuticals, Inc., priority 2002, dated 2010).
In the oligonucleotide strings, read from the 5' end, every base follows the letter of its sugar. An asterisk marks phosphorothioate; unmarked linkages are phosphodiester. Other units and linkages are bracketed, terminal groups are in braces. A string of capitals states the bases alone. e = 2'-O-(2-methoxyethyl) (MOE); [5mC] = 5-methylcytosine; d = 2'-deoxy (DNA)

System: human apolipoprotein B mRNA
Assay: Inhibition of human apolipoprotein B mRNA levels in HepG2 cells, quantitative real-time PCR
Format: cell-based
Conditions: HepG2 cells treated with 150 nM of compound; averages from two experiments; quantitative real-time PCR
In short: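 HepG2 cells at 80% confluency were transfected with antisense oligonucleotide using 3.75 μg/mL Lipofectin in Opti-MEM for 4-7 h and harvested 16-24 h after treatment. Apolipoprotein B mRNA was measured by real-time RT-PCR and normalized to GAPDH or RiboGreen total RNA. Percent inhibition came from untreated-control standard curves.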

| Substance | % INHIB (inhibition of human apolipoprotein B mRNA levels) |
| --- | --- |
| 301015 (e[5mC]*eA*eA*e[5mC]*e[5mC]*dG*dA*dG*dA*dA*dG*dG*dG*d[5mC]*dA*e[5mC]*eT*e[5mC]*eA*eG; antisense) [compound 301015] | 53% |
| 301016 (e[5mC]*e[5mC]*eT*e[5mC]*eA*dG*d[5mC]*dG*dG*d[5mC]*dA*dG*d[5mC]*dA*dA*e[5mC]*e[5mC]*eG*eA*eG; antisense) [compound 301016] | 62% |
| 301017 (eT*e[5mC]*e[5mC]*eT*e[5mC]*dA*dG*d[5mC]*dG*dG*d[5mC]*dA*dG*d[5mC]*dA*eA*e[5mC]*e[5mC]*eG*eA; antisense) [compound 301017] | 47% |
| 301018 (e[5mC]*eT*e[5mC]*e[5mC]*eT*d[5mC]*dA*dG*d[5mC]*dG*dG*d[5mC]*dA*dG*d[5mC]*eA*eA*e[5mC]*e[5mC]*eG; antisense) [compound 301018] | 45% |
| 301019 (eG*eG*e[5mC]*eT*e[5mC]*d[5mC]*dT*d[5mC]*dA*dG*d[5mC]*dG*dG*d[5mC]*dA*eG*e[5mC]*eA*eA*e[5mC]; antisense) [compound 301019] | 70% |
| 301020 (eG*eG*e[5mC]*eG*eG*dG*d[5mC]*dT*d[5mC]*d[5mC]*dT*d[5mC]*dA*dG*d[5mC]*eG*eG*e[5mC]*eA*eG; antisense) [compound 301020] | 85% |
| 301022 (eG*eG*e[5mC]*eG*eG*dG*dT*d[5mC]*d[5mC]*dA*dT*d[5mC]*dG*d[5mC]*d[5mC]*eA*eG*e[5mC]*eT*eG; antisense) [compound 301022] | 69% |
| 301023 (eT*eA*eG*eA*eG*dG*dA*dT*dG*dA*dT*dA*dG*dT*dA*eA*eG*eT*eT*e[5mC]; antisense) [compound 301023] | 69% |
| 301024 (eA*eA*eA*eT*eG*dA*dA*dG*dA*dT*dT*dT*d[5mC]*dT*dT*eT*eT*eA*eA*eA; antisense) [compound 301024] | 5% |
| 301025 (eT*eA*eT*eG*eT*dG*dA*dA*dA*dG*dT*dT*d[5mC]*dA*dA*eT*eT*eG*eG*eA; antisense) [compound 301025] | 76% |
| 301026 (eA*eT*eA*eT*eA*dG*dG*d[5mC]*dA*dG*dT*dT*dT*dG*dA*eA*eT*eT*eT*eT; antisense) [compound 301026] | 57% |
| 301032 (e[5mC]*eT*eA*e[5mC]*eT*dG*d[5mC]*dA*dA*dG*dG*d[5mC]*dT*dG*dG*e[5mC]*eT*e[5mC]*eA*e[5mC]; antisense) [compound 301032] | 63% |
| 301033 (eA*e[5mC]*eT*eG*e[5mC]*d[5mC]*dT*dA*d[5mC]*dT*dG*d[5mC]*dA*dA*dG*eG*e[5mC]*eT*eG*eG; antisense) [compound 301033] | 77% |
| 301034 (eT*eG*e[5mC]*eT*eT*dA*dT*dA*dG*dT*d[5mC]*dT*dA*d[5mC]*dT*eG*e[5mC]*e[5mC]*eT*eA; antisense) [compound 301034] | 88% |
| 301035 (eT*eT*e[5mC]*eT*eG*d[5mC]*dT*dT*dA*dT*dA*dG*dT*d[5mC]*dT*eA*e[5mC]*eT*eG*e[5mC]; antisense) [compound 301035] | 82% |
| 301036 (eT*eT*eT*eG*eG*dT*dG*d[5mC]*dA*dG*dG*dT*d[5mC]*d[5mC]*dA*eG*eT*eT*e[5mC]*eA; antisense) [compound 301036] | 88% |
| 301039 (eT*eG*eG*eT*eG*d[5mC]*d[5mC]*dA*dG*d[5mC]*dT*dT*dT*dG*dG*eT*eG*e[5mC]*eA*eG; antisense) [compound 301039] | 73% |
| 301040 (eG*e[5mC]*e[5mC]*e[5mC]*eT*dG*dG*dT*dG*d[5mC]*d[5mC]*dA*dG*d[5mC]*dT*eT*eT*eG*eG*eT; antisense) [compound 301040] | 74% |
| 301041 (eG*eA*eG*eT*eT*d[5mC]*dA*dG*dA*dG*dA*d[5mC]*d[5mC]*dT*dT*e[5mC]*e[5mC]*eG*eA*eG; antisense) [compound 301041] | 85% |
| 301042 (eA*eA*eA*eT*eG*d[5mC]*d[5mC]*dA*dT*d[5mC]*d[5mC]*dT*dT*d[5mC]*dT*eG*eA*eG*eT*eT; antisense) [compound 301042] | 81% |
| 301043 (eA*eA*eA*eA*eA*dT*dG*d[5mC]*d[5mC]*dA*dT*d[5mC]*d[5mC]*dT*dT*e[5mC]*eT*eG*eA*eG; antisense) [compound 301043] | 81% |
| 301044 (eA*eA*eA*eA*eT*dA*dA*d[5mC]*dT*d[5mC]*dA*dG*dA*dT*d[5mC]*e[5mC]*eT*eG*eA*eT; antisense) [compound 301044] | 76% |
| 301046 (eA*eG*eT*eT*eT*dA*dG*d[5mC]*dA*dA*dA*dA*dT*dA*dA*e[5mC]*eT*e[5mC]*eA*eG; antisense) [compound 301046] | 80% |
| 301047 (eT*e[5mC]*e[5mC]*e[5mC]*e[5mC]*d[5mC]*dA*dA*dG*dT*dT*dT*dA*dG*d[5mC]*eA*eA*eA*eA*eT; antisense) [compound 301047] | 56% |
| 301048 (eT*eT*e[5mC]*e[5mC]*eT*d[5mC]*d[5mC]*dT*d[5mC]*d[5mC]*d[5mC]*d[5mC]*d[5mC]*dA*dA*eG*eT*eT*eT*eA; antisense) [compound 301048] | 67% |

Same assay, conditions: HepG2 cells; human apolipoprotein B mRNA; oligonucleotides targeting genomic sequence SEQ ID NO 334; averages from two experiments

| Substance | % INHIB |
| --- | --- |
| 301049 (eT*e[5mC]*eT*eG*eT*dA*dA*dG*dA*d[5mC]*dA*dG*dG*dA*dG*eA*eA*eA*eG*eA; antisense) [compound 301049] | 41% |
| 301050 (eA*eT*eT*eT*e[5mC]*d[5mC]*dT*d[5mC]*dT*dT*d[5mC]*dT*dG*dT*dA*eA*eG*eA*e[5mC]*eA; antisense) [compound 301050] | 22% |
| 301051 (eG*eA*eT*eG*e[5mC]*d[5mC]*dT*dT*dA*d[5mC]*dT*dT*dG*dG*dA*e[5mC]*eA*eG*eA*e[5mC]; antisense) [compound 301051] | 27% |
| 301052 (eA*eG*eA*eA*eA*dT*dA*dG*d[5mC]*dT*d[5mC]*dT*d[5mC]*d[5mC]*d[5mC]*eA*eA*eG*eG*eA; antisense) [compound 301052] | 13% |
| 301053 (eG*eT*e[5mC]*eG*e[5mC]*dA*dT*d[5mC]*dT*dT*d[5mC]*dT*dA*dA*d[5mC]*eG*eT*eG*eG*eG; antisense) [compound 301053] | 45% |
| 301054 (eT*e[5mC]*e[5mC]*eT*e[5mC]*d[5mC]*dA*dT*dA*d[5mC]*d[5mC]*dT*dT*dG*d[5mC]*eA*eG*eT*eT*eG; antisense) [compound 301054] | 0% |
| 301055 (eT*eG*eG*e[5mC]*eT*d[5mC]*dA*dT*dG*dT*d[5mC]*dT*dA*d[5mC]*d[5mC]*eA*eT*eA*eT*eT; antisense) [compound 301055] | 49% |
| 301056 (e[5mC]*eA*eG*eT*eT*dG*dA*dA*dA*dT*dG*d[5mC]*dA*dG*d[5mC]*eT*eA*eA*eT*eG; antisense) [compound 301056] | 35% |
| 301057 (eT*eG*e[5mC]*eA*eG*dA*d[5mC]*dT*dA*dG*dG*dA*dG*dT*dG*eA*eA*eA*eG*eT; antisense) [compound 301057] | 30% |
| 301058 (eA*eG*eG*eA*eG*dG*dA*dT*dG*dT*d[5mC]*d[5mC]*dT*dT*dT*eT*eA*eT*eT*eG; antisense) [compound 301058] | 27% |
| 301059 (eA*eT*e[5mC]*eA*eG*dA*dG*d[5mC]*dA*d[5mC]*d[5mC]*dA*dA*dA*dG*eG*eG*eA*eA*eT; antisense) [compound 301059] | 12% |
| 301060 (e[5mC]*e[5mC]*eA*eG*e[5mC]*dT*d[5mC]*dA*dA*d[5mC]*d[5mC]*dT*dG*dA*dG*eA*eA*eT*eT*e[5mC]; antisense) [compound 301060] | 17% |
| 301061 (e[5mC]*eA*eT*eG*eA*d[5mC]*dT*dT*dA*d[5mC]*d[5mC]*dT*dG*dG*dA*e[5mC]*eA*eT*eG*eG; antisense) [compound 301061] | 52% |
| 301062 (e[5mC]*e[5mC]*eT*e[5mC]*eA*dG*d[5mC]*dG*dG*dA*d[5mC]*dA*d[5mC]*dA*d[5mC]*eA*e[5mC]*eA*e[5mC]*eA; antisense) [compound 301062] | 21% |
| 301063 (eG*eT*e[5mC]*eA*e[5mC]*dA*dT*d[5mC]*d[5mC]*dG*dT*dG*d[5mC]*d[5mC]*dT*eG*eG*eT*eG*e[5mC]; antisense) [compound 301063] | 41% |
| 301064 (e[5mC]*eA*eG*eT*eG*d[5mC]*d[5mC]*dT*d[5mC]*dT*dG*dG*dG*dA*d[5mC]*e[5mC]*e[5mC]*e[5mC]*eA*e[5mC]; antisense) [compound 301064] | 60% |
| 301065 (eA*eG*e[5mC]*eT*eG*d[5mC]*dA*dG*dT*dG*dG*d[5mC]*d[5mC]*dG*dA*eT*e[5mC]*eA*eG*e[5mC]; antisense) [compound 301065] | 50% |
| 301066 (eG*eA*e[5mC]*e[5mC]*eT*d[5mC]*d[5mC]*d[5mC]*d[5mC]*dA*dG*d[5mC]*d[5mC]*dA*d[5mC]*eG*eT*eG*eG*eA; antisense) [compound 301066] | 61% |

Same assay, conditions: Table 19 dose response; HepG2 cells, 37 nM; normalized to untreated control

| Substance | % inhibition 37 nM |
| --- | --- |
| 301034 (eT*eG*e[5mC]*eT*eT*dA*dT*dA*dG*dT*d[5mC]*dT*dA*d[5mC]*dT*eG*e[5mC]*e[5mC]*eT*eA; antisense) [compound 301034] | 73% |
| 301036 (eT*eT*eT*eG*eG*dT*dG*d[5mC]*dA*dG*dG*dT*d[5mC]*d[5mC]*dA*eG*eT*eT*e[5mC]*eA; antisense) [compound 301036] | 67% |

Same assay, conditions: Table 19 dose response; HepG2 cells, 75 nM; normalized to untreated control

| Substance | % inhibition 75 nM |
| --- | --- |
| 301034 (eT*eG*e[5mC]*eT*eT*dA*dT*dA*dG*dT*d[5mC]*dT*dA*d[5mC]*dT*eG*e[5mC]*e[5mC]*eT*eA; antisense) [compound 301034] | 87% |
| 301036 (eT*eT*eT*eG*eG*dT*dG*d[5mC]*dA*dG*dG*dT*d[5mC]*d[5mC]*dA*eG*eT*eT*e[5mC]*eA; antisense) [compound 301036] | 83% |

Same assay, conditions: Table 19 dose response; HepG2 cells, 150 nM; normalized to untreated control

| Substance | % inhibition 150 nM |
| --- | --- |
| 301034 (eT*eG*e[5mC]*eT*eT*dA*dT*dA*dG*dT*d[5mC]*dT*dA*d[5mC]*dT*eG*e[5mC]*e[5mC]*eT*eA; antisense) [compound 301034] | 93% |
| 301036 (eT*eT*eT*eG*eG*dT*dG*d[5mC]*dA*dG*dG*dT*d[5mC]*d[5mC]*dA*eG*eT*eT*e[5mC]*eA; antisense) [compound 301036] | 92% |

Same assay, conditions: Table 19 dose response; HepG2 cells, 300 nM; normalized to untreated control

| Substance | % inhibition 300 nM |
| --- | --- |
| 301034 (eT*eG*e[5mC]*eT*eT*dA*dT*dA*dG*dT*d[5mC]*dT*dA*d[5mC]*dT*eG*e[5mC]*e[5mC]*eT*eA; antisense) [compound 301034] | 97% |
| 301036 (eT*eT*eT*eG*eG*dT*dG*d[5mC]*dA*dG*dG*dT*d[5mC]*d[5mC]*dA*eG*eT*eT*e[5mC]*eA; antisense) [compound 301036] | 95% |
